Tests used:
[1] = test system: MOLT-4; experiment: ATP-based luminescence cell viability (CellTiter Glo), drug response score, MOLT-4; details: MOLT-4, screened individually (Compress: None)
From the text: As part of a screen, a drug could be screened at different concentrations ranging from a lowest concentration to a highest concentration. In such a scenario, multiple data structures may be obtained by the screening platform 210. […] With these multiple data structures, the analysis module 218 can generate a dose-response curve that describes the magnitude of the response of the biological target, as a function of exposure to different concentrations of the drug. Further, the analysis module 218 can calculate a metric that is indicative of the response of the biological target. In the event that the biological target is one of multiple biological targets that are introduced to the pools of drugs, the metric can be used by the screening platform 210 to better understand the relative magnitude of responses. One example of a metric is drug-response score (“DRS”). DRS can be calculated as a continuous function of multiple parameters of the non-linear dose-response curve, including the slope at the half-maximal effective concentration (also called “EC50”) and the top and bottom asymptotes of the dose-response curve. DRS can be calculated as follows: […]
where y is a continuous function of the variable dose x, a is the maximal response (i.e., the top asymptote of the curve), b is the slope of the curve, c is the IC50 (i.e., half-maximal inhibitory concentration), and d is the minimal response (i.e., the bottom asymptote of the curve). Other examples of metrics include those output by sigmoidal and Hill slide functions that, like DRS, incorporate multiple aspects of the dose-response curve into a continuous function.
Total cell viability was measured for each cancer cell line using an Adenosine TriPhosphate (“ATP”) assay, and more specifically an ATP-based luminescence assay (i.e., CellTiter Glo). […] The DRS was calculated as a continuous function of multiple parameters of the non-linear dose-response curve, including the slope at the half-maximal effective concentration (also called “EC50”) and the top and bottom asymptotes of the dose-response curve. […] After total cell viability was measured and DRS was calculated, the DRS of each cancer cell line in the pool was deconvolved for each cancer drug.
DRS for these anchor cell lines are bolded and italicized. […] Each pool can then be expressed as a polynomial of variables (cell lines in the pool) and constants (DRS value of the pool). […] When multiple values are calculated for the final target solved from the polynomials, then the anchor has a non-zero value that can be determined based on the difference in the calculated value of the final target. […]

[2] = test system: MOLT-4; experiment: Cell viability (CellTiter Glo), library of cancer drugs, individual or sample compression with randomized (alphabetical) pools, MOLT-4; type: cell-based; details: for DRS: MOLT-4, None (measured individually); for DRS from deconvolution: MOLT-4, Samples, 7 Pick 3 randomized (alphabetical) sample pools
Method in brief: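 Cells cultured with each drug individually at 1 nM–10 μM; viability by ATP luminescence (CellTiter Glo) to build dose-response curves and DRS. Samples read singly or pooled alphabetically (each drug in 3 of 7 pools), with pooled DRS recovered by additivity-based SUM deconvolution.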

[3] = test system: REH; experiment: Cell viability (CellTiter Glo), compressed perturbation pools with informed pool design, MAX-based deconvolution, REH; details: REH; for DRS: None (measured individually), informed pool design table; for DRS from MAX-based deconvolution: Samples, 7 Pick 3 informed perturbation pools; for DRS, REH, MAX: compressed perturbation pools, informed pool design, MAX-based deconvolution;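 on DRS from MAX-based deconvolution: higher DRS means a larger drug effect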
Method in brief: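 Drugs dosed from 1 nM to 10 μM with ATP-luminescence viability, giving a DRS per drug. Pools designed by drug class, with same-class drugs in separate cohorts and clinically toxic pairs kept apart.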

SMILES | drug response score (DRS) [1] | DRS [2] | DRS from deconvolution [2] | DRS [3] | DRS from MAX-based deconvolution [3] | DRS, REH, MAX [3]
COc1c(OCCCN2CCOCC2)ccc2c1N=C(NC(=O)c1cnc(N)nc1)N1CCN=C21 [Copanlisib] | 9.44 | 9.01 | 9.65 | 1.63 | 2.12 | 
COc1cc2ncnc(Nc3ccc(F)c(Cl)c3)c2cc1OCCCN1CCOCC1 [Gefitinib] |  | 2.96 | 3.02 | 0.00 | 0.00 | 4.06
N#Cc1ccnc(N2C(=O)CC[C@H]2C(=O)N(c2cncc(F)c2)[C@H](C(=O)NC2CC(F)(F)C2)c2ccccc2Cl)c1 [Ivosidenib] | 0.20 | 0.11 | 0.00 | 3.12 | 3.55 | 
C=CC(=O)Nc1cc(Nc2nccc(-c3cn(C)c4ccccc34)n2)c(OC)cc1N(C)CCN(C)C [Osimertinib] |  | 1.84 | 0.99 | 0.10 | 0.00 | 0.00
Cc1[nH]c2ccccc2c1CCNCc1ccc(/C=C/C(=O)NO)cc1 [Panobinostat] | 15.10 | 15.70 | 16.56 | 3.01 | 3.96 | 
CC1(C)CCC(CN2CCN(c3ccc(C(=O)NS(=O)(=O)c4ccc(NCC5CCOCC5)c([N+](=O)[O-])c4)c(Oc4cnc5[nH]ccc5c4)c3)CC2)=C(c2ccc(Cl)cc2)C1 [Venetoclax] | 2.90 | 2.74 | 2.89 | 4.37 | 0.00 | 4.43
